For nine compounds, Ki results are on record in PMC6598542, “Synthesis of a new series of 3-functionalised-1-phenyl-1,2,3-triazole sulfamoylbenzamides as carbonic anhydrase I, II, IV and IX inhibitors” (Journal of Enzyme Inhibition and Medicinal Chemistry, 2019).

Assay in all cases: stopped-flow CO2 hydration
Common to all, as to type: biochemical

For test [1], the target named is T1, hCA II (Homo sapiens, UniProt P00918).
T1 construct: gene CA2; recombinant, cytosolic isoform
Conditions: read-out: hCAII. An outline of the steps: (§1)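 Inhibition of recombinant human isozymes was measured by stopped-flow CO2 hydration, and Ki was obtained by non-linear least-squares fitting with the Cheng-Prusoff equation. Enzyme and inhibitor were first preincubated for 10 min at room temperature, then the reaction was followed for 5–10 s at 557 nm and 25 °C in 10 mM Hepes pH 7.4 containing 0.2 mM Phenol Red and 0.1 M Na2SO4 or NaClO4, with CO2-saturated water as substrate. Each value is the mean of at least three determinations, from at least seven inhibitor concentrations down to 0.01 nM tested in triplicate.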

In test [2] the target is T2, hCA IV (Homo sapiens, UniProt P22748).
T2 construct: gene CA4
An outline of the steps:
as §1

In test [3] the target is T3, hCA I (Homo sapiens, UniProt P00915).
T3 construct: gene CA1; recombinant, cytosolic isoform
The gist of the method:
as §1

Test [4] addresses T4, hCA IX (Homo sapiens, UniProt Q16790).
T4 construct: gene CA9; recombinant, transmembrane isoform
An outline of the steps:
as §1

T3 sequence (P00915 2-261): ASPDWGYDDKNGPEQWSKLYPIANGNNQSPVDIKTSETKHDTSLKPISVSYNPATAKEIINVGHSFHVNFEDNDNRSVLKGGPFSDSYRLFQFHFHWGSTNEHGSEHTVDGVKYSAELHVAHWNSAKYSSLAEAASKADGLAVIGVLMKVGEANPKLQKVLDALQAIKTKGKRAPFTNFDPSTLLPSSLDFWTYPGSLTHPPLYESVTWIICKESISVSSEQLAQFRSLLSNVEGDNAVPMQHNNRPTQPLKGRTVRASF
T2 sequence (P22748 19-284): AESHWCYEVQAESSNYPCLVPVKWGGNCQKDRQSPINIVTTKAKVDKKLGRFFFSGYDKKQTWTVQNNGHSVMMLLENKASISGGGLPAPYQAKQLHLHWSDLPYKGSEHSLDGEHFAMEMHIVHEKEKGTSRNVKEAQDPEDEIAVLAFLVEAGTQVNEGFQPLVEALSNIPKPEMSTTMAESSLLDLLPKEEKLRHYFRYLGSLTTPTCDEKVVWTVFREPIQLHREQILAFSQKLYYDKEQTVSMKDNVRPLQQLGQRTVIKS

As to `C#CCNC(=O)c1ccc(F)c(S(N)(=O)=O)c1` [4c, 4-Fluoro-N-(prop-2-yn-1-yl)-3-sulfamoylbenzamide], the Ki came out at 165 nM in test [1], 429 nM in test [2], 747 nM in test [3] and 816 nM in test [4].
In the case of `COc1ccc(-n2cc(CNC(=O)c3ccc(F)c(S(N)(=O)=O)c3)nn2)cc1` [6o, 4-Fluoro-N-((1–(4-methoxyphenyl)-1H-1,2,3-triazol-4-yl)methyl)-3-sulfamoylbenzamide], the Ki in test [1] stood at 73.5 nM; in test [2] it was 175 nM; in test [3], 69.2 nM; in test [4] it was 63.1 nM.
On the same counts, the results for `COc1cc(-n2cc(CNC(=O)c3ccc(Cl)c(S(N)(=O)=O)c3)nn2)cc(OC)c1OC` [6j, 4-Chloro-3-sulfamoyl-N-((1–(3,4,5-trimethoxyphenyl)-1H-1,2,3-triazol-4-yl)methyl)-benzamide] are 51.4 nM, 2280 nM, 479 nM and 212 nM.
On the same counts, the results for `NS(=O)(=O)c1cc(C(=O)NCc2cn(-c3ccc(C(F)(F)F)cc3)nn2)ccc1F` [6p, 4-Fluoro-3-sulfamoyl-N-((1–(4-(trifluoromethyl)phenyl)-1H-1,2,3-triazol-4-yl)methyl)benzamide] are 91.1 nM, 91.8 nM, 369 nM and 235 nM.
`NS(=O)(=O)c1cc(C(=O)NCc2cn(-c3ccc(C(F)(F)F)cc3)nn2)ccc1Cl` [6m, 4-Chloro-3-sulfamoyl-N-((1–(4-(trifluoromethyl)phenyl)-1H-1,2,3-triazol-4-yl)methyl)benzamide]: the Ki in test [1] came out at 7.8 nM; in test [2], 89.9 nM; in test [3], 811 nM; in test [4], 34.6 nM.
As for `Cc1ccc(-n2cc(CNC(=O)c3ccc(F)c(S(N)(=O)=O)c3)nn2)cc1` [6r, 4-Fluoro-3-sulfamoyl-N-((1-(p-tolyl)-1H-1,2,3-triazol-4-yl)methyl)benzamide], the Ki in test [1] was determined as 260 nM; in test [2], 215 nM; in test [3], 836 nM; in test [4] it was 67.5 nM.
Regarding `NS(=O)(=O)c1cc(C(=O)NCc2cn(-c3ccc(Br)cc3)nn2)ccc1F` [6t, N-((1–(4-bromophenyl)-1H-1,2,3-triazol-4-yl)methyl)-4-fluoro-3-sulfamoylbenzamide], the Ki worked out at 372 nM in test [1], 515 nM in test [2], 696 nM in test [3] and 71.5 nM in test [4].
Regarding `NS(=O)(=O)c1cc(C(=O)NCc2cn(-c3ccccc3)nn2)ccc1Cl` [6i, 4-Chloro-N-((1-phenyl-1H-1,2,3-triazol-4-yl)methyl)-3-sulfamoylbenzamide], the Ki in test [1] was determined as 71.2 nM; in test [2], 170 nM; in test [3] it was 312 nM; in test [4], 84.4 nM.
For the compound `C#CCNC(=O)c1ccc(Cl)c(S(N)(=O)=O)c1` [4b, 4-Chloro-N-(prop-2-yn-1-yl)-3-sulfamoylbenzamide], the Ki in test [1] is 73.5 nM; in test [2], 78.8 nM; in test [3], 4930 nM; in test [4] it was 447 nM.
